Source: patent US7432376B2, “Tropane prodrugs with central nervous system activity” (Research Foundation of State University of New York, The, priority 2006, dated 2008)
Where two headings read alike, the source gives them in different places.

How the values were obtained:
[1] = biological target: T1, 5-HT transport sites (SERT) (Rattus norvegicus, UniProt P31652); experiment: Displacement of [3H]paroxetine binding at 5-HT transport sites in membranes from rat frontal cortex; parameters: species or system Sprague-Dawley rat
T1 construct: tissue Pel-Freez, Rogers, Ark; host or cells: rat frontal cortex membranes
Description: (§1) Binding of at biogenic amine transporters was determined using striatum and frontal cortex dissected from frozen Sprague-Dawley rat brains (Pel-Freez, Rogers, Ark.). […] Affinities of analogs at 5-HT transport sites were determined by displacement of [^3H]paroxetine binding in membranes from rat frontal cortex, using 50 mg (original wet weight) of membranes and 0.4 nM [^3H]paroxetine. Non-specific binding was determined in the presence of 10 μM fluoxetine. Binding of analogs at norepinephrine transport sites was determined by displacement of [^3H]nisoxetine binding in membranes from rat forebrain, using 0.7 nM [^3H]nisoxetine. Non-specific binding was determined in the presence of 1 μM desipramine.
(§2) Potencies were calculated from displacement curves using 7-10 concentrations of unlabeled analogs, as analyzed by non-linear curve fitting. […] For [^3H]paroxetine and [^3H]nisoxetine binding assays, Ki values were calculated using the Cheng-Prusoff equation.^1 All data are mean values±S.E.M. of at least three separate experiments, each of which was conducted in triplicate.

[2] = biological target: T2, dopamine transport sites (DAT) (Rattus norvegicus, UniProt P23977); experiment: Displacement of [125I]RTI-55 binding at dopamine transport sites in membranes from rat striatum; parameters: species or system Sprague-Dawley rat
T2 construct: tissue Pel-Freez, Rogers, Ark; host or cells: rat striatum membranes
Description: as §1, §2

T1 sequence (P31652 whole entry): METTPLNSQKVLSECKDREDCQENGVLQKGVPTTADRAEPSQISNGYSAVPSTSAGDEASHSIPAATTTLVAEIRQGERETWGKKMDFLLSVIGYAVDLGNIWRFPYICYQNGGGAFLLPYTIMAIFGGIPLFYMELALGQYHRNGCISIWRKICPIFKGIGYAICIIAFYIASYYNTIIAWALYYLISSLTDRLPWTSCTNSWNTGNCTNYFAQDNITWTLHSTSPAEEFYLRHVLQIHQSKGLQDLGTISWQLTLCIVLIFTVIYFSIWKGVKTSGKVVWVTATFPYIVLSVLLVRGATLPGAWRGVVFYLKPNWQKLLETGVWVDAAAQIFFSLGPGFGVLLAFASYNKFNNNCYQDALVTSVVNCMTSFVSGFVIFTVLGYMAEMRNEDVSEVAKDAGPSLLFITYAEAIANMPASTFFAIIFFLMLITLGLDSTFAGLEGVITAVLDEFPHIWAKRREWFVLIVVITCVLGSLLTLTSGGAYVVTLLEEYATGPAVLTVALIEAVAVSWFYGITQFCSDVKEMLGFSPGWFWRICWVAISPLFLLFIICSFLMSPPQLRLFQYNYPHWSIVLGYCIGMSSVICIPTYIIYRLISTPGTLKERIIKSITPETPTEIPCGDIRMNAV
T2 sequence (P23977 whole entry): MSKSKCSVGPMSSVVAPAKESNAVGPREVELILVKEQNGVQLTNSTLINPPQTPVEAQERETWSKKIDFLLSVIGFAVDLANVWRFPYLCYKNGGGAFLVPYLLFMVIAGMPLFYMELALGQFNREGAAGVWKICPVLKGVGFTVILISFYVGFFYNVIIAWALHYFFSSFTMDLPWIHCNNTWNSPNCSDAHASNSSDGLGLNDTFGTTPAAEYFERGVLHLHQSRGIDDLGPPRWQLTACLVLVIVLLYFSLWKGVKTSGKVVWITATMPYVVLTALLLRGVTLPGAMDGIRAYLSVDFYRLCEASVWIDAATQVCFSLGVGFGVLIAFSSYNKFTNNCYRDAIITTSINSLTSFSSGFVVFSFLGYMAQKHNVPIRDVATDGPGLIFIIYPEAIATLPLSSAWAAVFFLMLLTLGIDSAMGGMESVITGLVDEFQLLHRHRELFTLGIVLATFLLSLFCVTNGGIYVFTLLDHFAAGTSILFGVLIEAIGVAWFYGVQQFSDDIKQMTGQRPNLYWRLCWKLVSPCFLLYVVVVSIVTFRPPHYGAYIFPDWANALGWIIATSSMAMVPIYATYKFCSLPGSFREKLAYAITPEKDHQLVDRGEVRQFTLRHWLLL

Row | Structure (SMILES) | Ki [1] | IC50 [2] | Ki ([1]; rat frontal cortex membranes, 0.4 nM [3H]paroxetine, Ki by Cheng-Prusoff, mean of at least three experiments, read-out: Ki SERT) | IC50 ([2]; rat striatum membranes, 10 pM [125I]RTI-55, mean of at least three experiments, read-out: IC50 DA)
1 | CCC(O)C1C(c2ccc(C)cc2)CC2CCC1N2C (stereo not drawn) [Compound 41a] | 161 nM | 3.69 nM | – | –
2 | CCC(O)C1C(c2ccc3ccccc3c2)CC2CCC1N2C (stereo not drawn) [Compound 41b] | 588 nM | 6.22 nM | – | –
3 | CCC(OC(C)=O)C1C(c2ccc(C)cc2)CC2CCC1N2C (stereo not drawn) [Compound 42a] | > 10000 nM | 87.9 nM | – | –
4 | CCC(OC(C)=O)C1C(c2ccc3ccccc3c2)CC2CCC1N2C (stereo not drawn) [Compound 42b] | 1.06 nM | 1.72 nM | – | –
5 | CCCCCCCCCCCC(=O)OC(CC)C1C(c2ccc(C)cc2)CC2CCC1N2C (stereo not drawn) [Compound 43a] | – | – | 1.91 nM | 0.891 nM
6 | CCCCCCCCCCCC(=O)OC(CC)C1C(c2ccc3ccccc3c2)CC2CCC1N2C (stereo not drawn) [Compound 43b] | 90.8 nM | 109 nM | – | –
